Laboratory results published in ChEMBL document CHEMBL5303573, “Mapping human microbiome drug metabolism by gut bacteria and their genes” (Nature, 2019).

Tests used:
[1] = molecular target: T1, Lipase (Bacteroides thetaiotaomicron, UniProt Q8A3J3); assay: The drug is tested on Bacteroides thetaiotaomicron strain: VPI-5482 for biotransformation. The drug concentrations were measured before and after a 12-h incubation by liquid-chromatography-coupled mass spectrometry (LC–MS); format: ADME; design: dose 2 uM; conditions: 2 µM
T1 sequence (Q8A3J3 whole entry): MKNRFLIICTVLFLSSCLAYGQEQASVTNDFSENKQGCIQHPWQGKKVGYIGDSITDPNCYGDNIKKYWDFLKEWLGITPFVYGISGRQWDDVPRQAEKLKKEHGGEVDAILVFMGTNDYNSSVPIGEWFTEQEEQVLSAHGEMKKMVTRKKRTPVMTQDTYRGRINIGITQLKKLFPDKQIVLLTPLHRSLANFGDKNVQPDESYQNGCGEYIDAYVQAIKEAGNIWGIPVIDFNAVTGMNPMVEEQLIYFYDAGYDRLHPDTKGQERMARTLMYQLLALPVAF

[2] = The drug is tested on Proteus penneri strain: ATCC35198 for biotransformation. The drug concentrations were measured before and after a 12-h incubation by liquid-chromatography-coupled mass spectrometry (LC–MS); conditions: 2 µM
[3] = The drug is tested on Eubacterium biforme strain: DSM3989 for biotransformation. The drug concentrations were measured before and after a 12-h incubation by liquid-chromatography-coupled mass spectrometry (LC–MS); conditions: holdemanella biformis, 2 µM

Bacterial Biotransformation [1]	Bacterial Biotransformation [2]	Bacterial Biotransformation [3]	Compound
	Compound NOT metabolized		CC(C)NCC(O)COc1ccc(CC(N)=O)cc1 (stereo not drawn) [ATENOLOL]
	Compound NOT metabolized		CC(C)NCC(O)COc1ccc(CCOCC2CC2)cc1 (stereo not drawn) [BETAXOLOL]
Compound metabolized			CC(=O)Oc1ccc(C(c2ccc(OC(C)=O)cc2)c2ccccn2)cc1 [BISACODYL]
	Compound NOT metabolized	Compound metabolized	O=C(O)COCCN1CCN(C(c2ccccc2)c2ccc(Cl)cc2)CC1 (stereo not drawn) [CETIRIZINE]
	Compound NOT metabolized	Compound NOT metabolized	Clc1cccc(Cl)c1N=C1NCCN1 [CLONIDINE]
	Compound NOT metabolized	Compound NOT metabolized	CN(C)CCC=C1c2ccccc2C=Cc2ccccc21 [CYCLOBENZAPRINE]
Compound NOT metabolized			C#C[C@]1(O)CC[C@H]2[C@@H]3CCC4=Cc5oncc5C[C@]4(C)[C@H]3CC[C@@]21C [DANAZOL]
Compound metabolized			CC(=O)Nc1ccc(OC(C)=O)cc1 [DIACETAMATE]
Compound NOT metabolized			CCN(CC)C(=O)/C(C#N)=C/c1cc(O)c(O)c([N+](=O)[O-])c1 [ENTACAPONE]
	Compound metabolized	Compound NOT metabolized	c1ccc([C@H]2CN3CCSC3=N2)cc1 [LEVAMISOLE]
Compound NOT metabolized			COc1ccnc(C[S+]([O-])c2nc3ccc(OC(F)F)cc3[nH]2)c1OC (stereo not drawn) [PANTOPRAZOLE]
Compound NOT metabolized			Nc1ccc(/N=N/c2ccccc2)c(N)n1 [PHENAZOPYRIDINE]
Compound metabolized			CC(=O)SCC(Cc1ccccc1)C(=O)NCC(=O)OCc1ccccc1 (stereo not drawn) [RACECADOTRIL]
Compound NOT metabolized			CC(=O)OCC(=O)NCCCOc1cccc(CN2CCCCC2)c1 [ROXATIDINE ACETATE]
Compound NOT metabolized			O=C(O)c1cc(/N=N/c2ccc(S(=O)(=O)Nc3ccccn3)cc2)ccc1O [SULFASALAZINE]
Compound NOT metabolized			CCS(=O)(=O)CCn1c([N+](=O)[O-])cnc1C [TINIDAZOLE]

Compound	Bacterial Biotransformation [1]	Bacterial Biotransformation [2]	Bacterial Biotransformation [3]
C[C@@H]1CC[C@H]2[C@@H](C)C(=O)O[C@@H]3O[C@@]4(C)CC[C@@H]1[C@]32OO4 [ARTEMISININ]	Compound NOT metabolized		
CN/C(=N/CCSCc1nc[nH]c1C)NC#N [CIMETIDINE]		Compound NOT metabolized	
COC(=O)[C@H](c1ccccc1Cl)N1CCc2sccc2C1.O=S(=O)(O)O [CLOPIDOGREL BISULFATE]		Compound NOT metabolized	Compound NOT metabolized
CN1CCN(C2=Nc3cc(Cl)ccc3Nc3ccccc32)CC1 [CLOZAPINE]		Compound NOT metabolized	Compound NOT metabolized
O=P1(N(CCCl)CCCl)NCCCO1 (stereo not drawn) [CYCLOPHOSPHAMIDE ANHYDROUS]		Compound NOT metabolized	Compound metabolized
